Results taken from PMC7468908 (Nutrients, 2020).
“And” between values parts separate entries of the source, which are not always exact repeats. Equal values may be shown once. Read-outs that look alike come from different tables or passages of the source.

Assays:
CYP2C19 = target: T1, CYP2C19 (Homo sapiens, UniProt P33261); test: CYP2C19-catalyzed S-mephenytoin hydroxylation (CypExpress kit, HPLC); format: biochemical; details: for concentration inducing statistically significant (p < 0.01) decrease in metabolite formation, CYP2C19: substrate 5 µM S-mephenytoin
T1 construct: purchased Sigma-Aldrich
Protocol: Inhibition of CYP2C19 [47], 3A4 [48], and 2D6 [49] by Q and its conjugates was tested based on our previously reported methods, without modifications.
S-mephenytoin and 4-hydroxymephenytoin (CYP2C19 assay), testosterone and 6β-hydroxytestosterone (CYP3A4 assay), as well as dextromethorphan and dextrorphan (CYP2D6 assay) were quantified using the previously described methods, with minor modifications.
In CYP2C19 assay, the mobile phase contained acetonitrile, methanol (VWR), and sodium phosphate buffer (10 mM, pH 4.55) (17:10:73 v/v%). Samples were driven through a guard column (Phenomenex Security Guard C8, 4.0 × 3.0 mm) linked to an analytical column (Phenomenex C8 100 × 4.6 mm; 2.6 µm), with a 1 mL/min flow rate, at room temperature. After the isocratic elution, S-mephenytoin and 4-hydroxymephenytoin were detected at 230 nm.

OATP1A2 = target: T2, OATP1A2 (Homo sapiens, UniProt P46721); test: OATP1A2-mediated sulforhodamine 101 uptake in A431 cells overexpressing OATP1A2; format: cell-based; details: for IC50: A431-OATP1A2 cells
T2 construct: host or cells: A431
T2 sequence (P46721 1-670): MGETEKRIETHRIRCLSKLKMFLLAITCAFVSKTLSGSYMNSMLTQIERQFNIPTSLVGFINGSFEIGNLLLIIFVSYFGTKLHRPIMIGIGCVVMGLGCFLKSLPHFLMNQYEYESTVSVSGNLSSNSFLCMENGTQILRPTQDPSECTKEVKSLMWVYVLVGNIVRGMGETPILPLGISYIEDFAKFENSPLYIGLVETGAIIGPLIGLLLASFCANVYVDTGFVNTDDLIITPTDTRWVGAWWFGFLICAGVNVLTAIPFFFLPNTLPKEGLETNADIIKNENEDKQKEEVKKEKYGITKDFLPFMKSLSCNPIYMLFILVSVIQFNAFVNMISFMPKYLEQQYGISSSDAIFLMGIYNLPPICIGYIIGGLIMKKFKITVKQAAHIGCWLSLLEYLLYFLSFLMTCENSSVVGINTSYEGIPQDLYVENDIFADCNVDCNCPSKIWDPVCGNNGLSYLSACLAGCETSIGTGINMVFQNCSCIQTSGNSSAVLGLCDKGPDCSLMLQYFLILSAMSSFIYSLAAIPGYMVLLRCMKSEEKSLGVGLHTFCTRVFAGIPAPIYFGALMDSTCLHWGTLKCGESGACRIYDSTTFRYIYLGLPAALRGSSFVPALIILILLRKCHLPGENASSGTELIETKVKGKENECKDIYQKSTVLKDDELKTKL
Protocol: A431 cells overexpressing human OATPs, 1A2 (BC042452, HsCD00333163), 1B1 (Gene ID: AB026257), 1B3 (BC141525, HsCD00348132) or 2B1 (BC041095.1, HsCD00378878), or their mock transfected controls, were generated as previously described. Cells were cultured in Dulbecco’s Modified Eagle Medium (DMEM; Thermo Fischer Scientific, Waltham, MA, USA) supplemented with 10% fetal bovine serum, 2 mM L-glutamine, 100 units/mL penicillin and 100 µg/mL streptomycin, at 37 °C with 5% CO2.
The interaction between flavonoids and OATPs was investigated in an indirect assay employing the fluorescent dye substrates, pyranine and sulforhodamine 101 [51, 52]. Briefly, A431 cell overexpressing OATPs, 1A2, 1B1, 1B3 or 2B1, or their mock transfected controls, were seeded on 96-well plates in a density of 8x10^4 cells/well in 200 μL DMEM one day prior to the transport measurements. […] The reaction was started by the addition of 50 μL uptake buffer containing pyranine in a final concentration of 10 μM (OATP1B1) or 20 μM (OATP1B3 and OATP2B1), or 0.5 μM sulforhodamine 101 (OATP1A2). Thereafter, cells were incubated at 37°C for 15 min (OATP1B1 and OATP2B1), 10 min (OATP1A2), or 30 min (OATP1B3). The reactions were stopped by removing the supernatants, then the cells were washed three times with ice-cold PBS. Fluorescence (in 200 μL PBS/well) was determined employing an Enspire plate reader (Perkin Elmer, Waltham, MA) ex/em: 403/517 nm (pyranine) or 586/605 nm (sulforhodamine 101). OATP-dependent transport was calculated by extracting fluorescence measured in mock transfected cells. Transport activity was calculated based on the fluorescence signal in the absence (100%) of flavonoids. Experiments were repeated at least in three biological replicates. IC50 values were calculated by Hill1 fit, using the Origin Pro8.6 software ([…]).

BCRP = target: T3, BCRP (Homo sapiens, UniProt Q9UNQ0); test: BCRP vanadate sensitive ATPase activity in Sf9 membrane vesicles; format: biochemical; details: 3 mM Mg-ATP, 25 min, 37 °C
T3 construct: made in house; host or cells: Sf9 insect cells (baculovirus)
T3 sequence (Q9UNQ0 1-655): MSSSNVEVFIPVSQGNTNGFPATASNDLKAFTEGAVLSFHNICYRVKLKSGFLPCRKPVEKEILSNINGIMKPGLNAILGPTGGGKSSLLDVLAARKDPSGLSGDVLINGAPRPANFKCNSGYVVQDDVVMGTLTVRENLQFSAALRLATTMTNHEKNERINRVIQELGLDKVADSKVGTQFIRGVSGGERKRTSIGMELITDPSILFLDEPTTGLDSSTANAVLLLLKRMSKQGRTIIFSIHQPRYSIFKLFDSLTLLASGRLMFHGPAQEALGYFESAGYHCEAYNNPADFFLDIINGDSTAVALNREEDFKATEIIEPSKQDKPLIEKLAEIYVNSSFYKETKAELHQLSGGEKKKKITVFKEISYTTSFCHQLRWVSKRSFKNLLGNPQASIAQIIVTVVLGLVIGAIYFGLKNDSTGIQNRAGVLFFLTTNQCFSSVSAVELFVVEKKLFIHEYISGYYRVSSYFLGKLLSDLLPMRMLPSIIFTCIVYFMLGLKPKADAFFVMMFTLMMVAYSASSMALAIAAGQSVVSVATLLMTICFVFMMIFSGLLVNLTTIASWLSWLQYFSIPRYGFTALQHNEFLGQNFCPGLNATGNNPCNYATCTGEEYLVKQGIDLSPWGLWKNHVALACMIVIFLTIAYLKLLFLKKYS
Protocol: ATPase activity was measured on Sf9 membrane vesicles containing human BCRP prepared as described in 2.5. Appropriate amounts of vesicles (10 μg/50 μL) were used in the assays. Experimental parameters were the same as it has been earlier reported. Membrane vesicles were incubated with 3 mM of Mg-ATP for 25 min at 37 °C. Effects of flavonoids were investigated up to 50 μM. […] ABC transporter function was determined as vanadate sensitive ATPase activity. Liberated inorganic phosphate was measured by a colorimetric reaction as described. Absorbance of samples was measured after 25 min at 660 nm.

[1] = some human subjects, 500 mg single dose of Q in certain oral carrier systems; cited from earlier work
[2] = S-mephenytoin hydroxylation, substrate 5 µM, read-out: IC50 for CYP2C19
[3] = 0.5 μM sulforhodamine 101, 10 min
[4] = 0.5 μM sulforhodamine 101, 10 min, read-out: IC50 for OATP1A2

T1 sequence (P33261 whole entry): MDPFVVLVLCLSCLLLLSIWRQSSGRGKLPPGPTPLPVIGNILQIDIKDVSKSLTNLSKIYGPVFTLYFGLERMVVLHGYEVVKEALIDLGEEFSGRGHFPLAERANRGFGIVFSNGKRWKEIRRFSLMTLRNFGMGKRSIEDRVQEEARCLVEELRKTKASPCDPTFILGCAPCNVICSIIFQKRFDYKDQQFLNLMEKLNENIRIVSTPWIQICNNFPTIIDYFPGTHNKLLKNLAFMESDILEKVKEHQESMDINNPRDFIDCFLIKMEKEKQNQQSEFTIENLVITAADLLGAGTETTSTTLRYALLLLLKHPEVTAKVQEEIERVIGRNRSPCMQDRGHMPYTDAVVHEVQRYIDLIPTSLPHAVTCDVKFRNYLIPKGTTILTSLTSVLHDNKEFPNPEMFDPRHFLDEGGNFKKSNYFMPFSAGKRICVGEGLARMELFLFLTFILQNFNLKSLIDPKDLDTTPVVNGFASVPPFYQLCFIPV

Row | Structure (SMILES) | IC50 (CYP2C19; [2]) [µM] | concentration inducing statistically significant (p < 0.01) decrease in metabolite formation, CYP2C19 (CYP2C19) [µM] | concentration causing statistically significant (p < 0.01) inhibition, OATP1A2 (OATP1A2; [3]) [µM] | IC50 (OATP1A2; [4]) | concentration inducing statistically significant (p < 0.01) increase in ATPase activity of BCRP (BCRP) [µM] | IC50 (CYP2C19) [µM] | IC50 (OATP1A2; IC50 for OATP1A2, 0.5 μM sulforhodamine 101, 10 min) [µM] | peak plasma concentrations of total Q [1] [µM]
1 | COc1cc(-c2oc3cc(O)cc(O)c3c(=O)c2OC2OC(C(=O)O)C(O)C(O)C2O)ccc1O (stereo not shown) [I3G, isorhamnetin-3-glucuronide] | > 30 | 20 | 12.5 | > 30 µM | 10 | – | – | –
2 | COc1cc(-c2oc3cc(O)cc(O)c3c(=O)c2O)ccc1O [IR, isorhamnetin] | – | 20 | 3.1 | – | 0.02 | > 30 | > 30 | –
3 | O=C(O)C1OC(Oc2c(-c3ccc(O)c(O)c3)oc3cc(O)cc(O)c3c2=O)C(O)C(O)C1O (stereo not shown) [Q3G, quercetin-3-glucuronide] | > 30 | 20 | 25 | > 30 µM | 50 | – | – | –
4 | O=c1c(O)c(-c2ccc(O)c(OS(=O)(=O)O)c2)oc2cc(O)cc(O)c12 [Q3′S, quercetin-3′-sulfate] | > 30 | 20 | 0.8 | 4.9 µM and 4.92 µM | 0.4 | – | – | –
5 | O=c1c(O)c(-c2ccc(O)c(O)c2)oc2cc(O)cc(O)c12 [Q, quercetin] | – | 10 | 3.1 | 10.1 µM | 0.08 | – | – | 5 to 10
